Test results: PubChem BioAssay AID328 (DTP/NCI, 2004)
Where “and” joins values, the source holds several entries; their conditions need not be identical. Identical values can stand only once. Toxic doses and inconclusive results are not listed. Non-standard residues stand in square brackets, D forms with d. Residues, ends and D or L forms follow the SMILES beside them. ξ: configuration not given here. ξPhe(4-N(CH2CH2Cl)2) = NC(Cc1ccc(N(CCCl)CCCl)cc1)C(=O)O

System: BDF1 mice, P388 leukemia ip, median survival T/C
Assay: NCI In Vivo Anticancer Drug Screen. Data for tumor model P388 Leukemia (intraperitoneal) in B6D2F1 (BDF1) mice
Conditions: endpoint: median survival time, higher = longer survival
Method: The antitumor activity of compounds was measured in mice bearing transplantable tumors. Survival or tumor size were measured and the results are expressed as the measurement made in the treated group (T) divided by the measurement made in the vehicle treated control group (C). The tumor model used in this assay is P388 Leukemia (intraperitoneal) in B6D2F1 (BDF1) mice

[1] = dose: 100.0 mg/kg/injection, schedule: Q04DX003 (ip), vehicle: Klucel (hydroxypropylcellulose) (HPC)
[2] = dose: 200.0 mg/kg/injection, schedule: Q04DX003 (ip), vehicle: Klucel (hydroxypropylcellulose) (HPC)
[3] = dose: 400.0 mg/kg/injection, schedule: Q04DX003 (ip), vehicle: Klucel (hydroxypropylcellulose) (HPC)
[4] = dose: 50.0 mg/kg/injection, schedule: Q01DX009 (ip), vehicle: saline with Tween-80
[5] = dose: 100.0 mg/kg/injection, schedule: Q01DX009 (ip), vehicle: saline with Tween-80
[6] = dose: 200.0 mg/kg/injection, schedule: Q01DX009 (ip), vehicle: saline with Tween-80
[7] = dose: 25.0 mg/kg/injection, schedule: Q01DX009 (ip), vehicle: saline with Tween-80
[8] = dose: 100.0 mg/kg/injection, schedule: Q04DX003 (ip), vehicle: saline with Tween-80
[9] = dose: 200.0 mg/kg/injection, schedule: Q04DX003 (ip), vehicle: saline with Tween-80
[10] = dose: 400.0 mg/kg/injection, schedule: Q04DX003 (ip), vehicle: saline with Tween-80
[11] = dose: 400.0 mg/kg/injection, schedule: Q01DX009 (ip), vehicle: saline with Tween-80

CCOc1ccc(N2C(=O)CC(Sc3ccccc3N)C2=O)cc1 (stereo not drawn)
T/C (dose: 100.0 mg/kg/injection, schedule: Q01DX001 (ip), vehicle: Klucel (hydroxypropylcellulose) (HPC)): 105 % of control | T/C [1]: 100 % of control | T/C (dose: 200.0 mg/kg/injection, schedule: Q01DX001 (ip), vehicle: Klucel (hydroxypropylcellulose) (HPC)): 100 % of control | T/C [2]: 90 % of control | T/C (dose: 400.0 mg/kg/injection, schedule: Q01DX001 (ip), vehicle: Klucel (hydroxypropylcellulose) (HPC)): 100 % of control | T/C [3]: 100 % of control

C/C(=C\c1ccc(OCc2ccccc2)cc1)C(=O)c1ccc(Cl)cc1
T/C [4]: 90 % of control | T/C [5]: 87 % of control | T/C [6]: 92 % of control

Cn1c2ccccc2c(=S)c2c(O)cc3c(c21)C=CC(C)(C)O3
T/C (dose: 50.0 mg/kg/injection, schedule: Q01DX005 (ip), vehicle: saline with Tween-80): 89 % of control | T/C (dose: 100.0 mg/kg/injection, schedule: Q01DX005 (ip), vehicle: saline with Tween-80): 90 % of control | T/C (dose: 200.0 mg/kg/injection, schedule: Q01DX005 (ip), vehicle: saline with Tween-80): 89 % of control

Clc1ccc(C2c3ccccc3C[n+]3ccccc32)cc1 (stereo not drawn)
T/C (dose: 8.75 mg/kg/injection, schedule: Q01DX009 (ip), vehicle: Klucel (hydroxypropylcellulose) (HPC)): 113 % of control | T/C (dose: 12.5 mg/kg/injection, schedule: Q04DX003 (ip), vehicle: Klucel (hydroxypropylcellulose) (HPC)): 95 % of control | T/C (dose: 17.5 mg/kg/injection, schedule: Q01DX009 (ip), vehicle: Klucel (hydroxypropylcellulose) (HPC)): 109 % of control | T/C (dose: 25.0 mg/kg/injection, schedule: Q04DX003 (ip), vehicle: Klucel (hydroxypropylcellulose) (HPC)): 91 % of control

CN(CCCOS(C)(=O)=O)CCCOS(C)(=O)=O
T/C (dose: 2.2 mg/kg/injection, schedule: Q04DX003 (ip), vehicle: saline): 104 % of control | T/C (dose: 3.4 mg/kg/injection, schedule: Q04DX003 (ip), vehicle: saline): 113 % of control | T/C (dose: 5.0 mg/kg/injection, schedule: Q01DX010 (ip), vehicle: saline): 150 % of control | T/C (dose: 10.0 mg/kg/injection, schedule: Q01DX010 (ip), vehicle: saline): 196 % of control | T/C (dose: 19.0 mg/kg/injection, schedule: Q04DX003 (ip), vehicle: saline): 172 % of control | T/C [7]: 263 % of control | T/C (dose: 29.0 mg/kg/injection, schedule: Q04DX003 (ip), vehicle: saline with Tween-80): 209 % of control | T/C (dose: 40.0 mg/kg/injection, schedule: Q01DX010 (ip), vehicle: saline): 230 % of control | T/C (dose: 66.0 mg/kg/injection, schedule: Q04DX003 (ip), vehicle: saline with Tween-80): 300 % of control | T/C (dose: 80.0 mg/kg/injection, schedule: Q01DX010 (ip), vehicle: saline): 107 % of control | T/C [8]: 300 % of control | T/C (dose: 100.0 mg/kg/injection, schedule: Q04DX003 (ip), vehicle: saline): 118 % of control | T/C (dose: 150.0 mg/kg/injection, schedule: Q04DX003 (ip), vehicle: saline with Tween-80): 100 % of control | T/C (dose: 150.0 mg/kg/injection, schedule: Q04DX003 (ip), vehicle: saline): 254 % of control

OC(COC(c1ccccc1)(c1ccccc1)c1ccccc1)C(O)CC1SCCS1 (stereo not drawn)
T/C (dose: 100.0 mg/kg/injection, schedule: Q01DX009 (ip), vehicle: saline sonified): 100 % of control | T/C (dose: 100.0 mg/kg/injection, schedule: Q04DX003 (ip), vehicle: saline sonified): 112 % of control | T/C (dose: 200.0 mg/kg/injection, schedule: Q01DX009 (ip), vehicle: saline sonified): 110 % of control | T/C (dose: 200.0 mg/kg/injection, schedule: Q04DX003 (ip), vehicle: saline sonified): 100 % of control | T/C (dose: 400.0 mg/kg/injection, schedule: Q01DX009 (ip), vehicle: saline sonified): 95 % of control | T/C (dose: 400.0 mg/kg/injection, schedule: Q04DX003 (ip), vehicle: saline sonified): 108 % of control

Cc1ccc(C2=NNc3n[nH]c(=S)n3N2)cc1
T/C [8]: 91 % of control | T/C [9]: 95 % of control | T/C [10]: 100 % of control

O=C(CBr)CC(=O)Nc1ccccc1
T/C (dose: 12.5 mg/kg/injection, schedule: Q01DX009 (ip), vehicle: saline with Tween-80): 100 % of control

CS(=O)(=O)Nc1ccc(NS(C)(=O)=O)cc1
T/C (dose: 100.0 mg/kg/injection, schedule: Q01DX001 (ip), vehicle: saline with Tween-80): 112 % of control | T/C (dose: 200.0 mg/kg/injection, schedule: Q01DX001 (ip), vehicle: saline with Tween-80): 100 % of control | T/C (dose: 400.0 mg/kg/injection, schedule: Q01DX001 (ip), vehicle: saline with Tween-80): 100 % of control

CN(C(=O)/C=C/C(=O)O)c1ccccc1
T/C [7]: 109 % of control | T/C [4]: 109 % of control | T/C [5]: 109 % of control | T/C [6]: 113 % of control | T/C [11]: 100 % of control

CN(C)c1nn2c(-c3ccccc3)nnc2o1
T/C (dose: 200.0 mg/kg/injection, schedule: Q04DX003 (ip), vehicle: saline): 105 % of control | T/C (dose: 400.0 mg/kg/injection, schedule: Q04DX003 (ip), vehicle: saline): 120 % of control

NC(CO)C(=O)NC(CCC(=O)O)C(=O)NC(CO)C(=O)NC(CCC(=O)O)C(=O)NC(Cc1ccc(N(CCCl)CCCl)cc1)C(=O)O (stereo not drawn) (H-SESE[ξPhe(4-N(CH2CH2Cl)2)]-OH; configuration not given here)
T/C (dose: 5.0 mg/kg/injection, schedule: Q04DX003 (ip), vehicle: water): 100 % of control | T/C (dose: 10.0 mg/kg/injection, schedule: Q04DX003 (ip), vehicle: water): 98 % of control | T/C (dose: 20.0 mg/kg/injection, schedule: Q04DX003 (ip), vehicle: water): 97 % of control | T/C (dose: 40.0 mg/kg/injection, schedule: Q04DX003 (ip), vehicle: water): 100 % of control

CC(=O)Nc1ccccc1C1SCCCS1
T/C (dose: 50.0 mg/kg/injection, schedule: Q04DX002 (ip), vehicle: saline with Tween-80): 102 % of control | T/C (dose: 100.0 mg/kg/injection, schedule: Q04DX002 (ip), vehicle: saline with Tween-80): 98 % of control | T/C (dose: 200.0 mg/kg/injection, schedule: Q04DX002 (ip), vehicle: saline with Tween-80): 106 % of control

CC(=O)c1cccc([N+](=O)[O-])c1
T/C (dose: 100.0 mg/kg/injection, schedule: Q04DX003 (ip), vehicle: other): 100 % of control | T/C (dose: 200.0 mg/kg/injection, schedule: Q04DX003 (ip), vehicle: other): 104 % of control | T/C (dose: 400.0 mg/kg/injection, schedule: Q04DX003 (ip), vehicle: other): 90 % of control

COc1cc([N+](=O)[O-])c(Cl)cc1NS(=O)(=O)c1ccccc1
T/C (dose: 67.0 mg/kg/injection, schedule: Q01DX009 (ip), vehicle: saline with Tween-80): 100 % of control and 108 % of control | T/C [5]: 100 % of control and 111 % of control | T/C [8]: 103 % of control | T/C (dose: 150.0 mg/kg/injection, schedule: Q01DX009 (ip), vehicle: saline with Tween-80): 100 % of control and 111 % of control | T/C [6]: 120 % of control | T/C [9]: 92 % of control | T/C [11]: 105 % of control | T/C [10]: 96 % of control

O=C1c2ccccc2C(=O)N1CCC[P+](c1ccccc1)(c1ccccc1)c1ccccc1
T/C (dose: 1.56 mg/kg/injection, schedule: Q01DX009 (ip), vehicle: Klucel (hydroxypropylcellulose) (HPC)): 102 % of control | T/C (dose: 12.5 mg/kg/injection, schedule: Q01DX009 (ip), vehicle: Klucel (hydroxypropylcellulose) (HPC)): 151 % of control

C#C[C@]1(O)CC[C@H]2[C@@H]3CCc4cc(O)ccc4[C@H]3CC[C@@]21C
T/C (dose: 100.0 mg/kg/injection, schedule: Q01DX009 (ip), vehicle: Klucel (hydroxypropylcellulose) (HPC)): 95 % of control | T/C [1]: 104 % of control | T/C (dose: 200.0 mg/kg/injection, schedule: Q01DX009 (ip), vehicle: Klucel (hydroxypropylcellulose) (HPC)): 87 % of control | T/C [2]: 104 % of control | T/C [3]: 95 % of control

C=C1CCC2(C(C)C)CC12 (stereo not drawn)
T/C (dose: 100.0 mg/kg/injection, schedule: Q01DX001 (ip), vehicle: saline sonified): 109 % of control | T/C (dose: 200.0 mg/kg/injection, schedule: Q01DX001 (ip), vehicle: saline sonified): 104 % of control | T/C (dose: 400.0 mg/kg/injection, schedule: Q01DX001 (ip), vehicle: saline sonified): 104 % of control
